17 molecules from PubChem BioAssay (NCI) can be followed below.

Test systems include UACC-257 melanoma; EKVX NSCLC; NCI-H460 lung; SNB-19 CNS; NCI-H226 lung; KM12 colon; MOLT-4 leukemia; SN12C renal; HS 578T breast; SNB-75 CNS.
Test in all cases: NCI anticancer screen, dose series, 48 h

Each structure is given as a SMILES string. Values joined by “and” are separate entries in the source; they are usually repeats but may differ in a detail not shown here. Equal entries are not always repeated.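 Assay format: 96-well plates, 48-hour exposure. GI50 marks 50% less growth. TGI denotes the concentration required for complete inhibition of growth.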

For the molecule `Cc1oc2nc[nH]c(=O)c2c1C(=O)/C=C/c1ccc(Cl)cc1`, the GI50 is 2.72 µM in the assay with UACC-257 melanoma; 2.37 µM with EKVX NSCLC; 2.56 µM in the assay with NCI-H460 lung; 3.28 µM in the assay on SNB-19 CNS; 1.96 µM in the assay with NCI-H226 lung; 2.97 µM with KM12 colon. Also, the results for the GI50 in the assay on MOLT-4 leukemia, with SN12C renal and with HS 578T breast were 2.75 µM, 2.79 µM and 3.66 µM, respectively. Also, the TGI in the assay on UACC-257 melanoma was 12.7 µM; with EKVX NSCLC, 15.9 µM; with NCI-H460 lung, 7.03 µM; with SNB-19 CNS it was 13.7 µM; in the assay with NCI-H226 lung, 7.36 µM; in the assay on KM12 colon, 9.16 µM. The TGI was 9.98 µM in the assay with MOLT-4 leukemia, 14.2 µM in the assay with SN12C renal and above 100 µM in the assay with HS 578T breast.

Take `CC(=O)Nc1ccc(-c2c3nc(c(-c4cc5ccccc5[n+](C)c4)c4ccc([nH]4)c(-c4ccc(NC(C)=O)cc4)c4nc(c(-c5cc6ccccc6[n+](C)c5)c5ccc2[nH]5)C=C4)C=C3)cc1`: the GI50 in the assay with UACC-257 melanoma was 11.7 µM; in the assay with EKVX NSCLC, 9.09 µM; in the assay with NCI-H460 lung it was 13.8 µM; in the assay with SNB-19 CNS, 10.9 µM; with SNB-75 CNS it was 2.17 µM; with KM12 colon, 15.1 µM. Further, the GI50 in the assay on MOLT-4 leukemia is above 50 µM; with SN12C renal it was 7.09 µM; in the assay with HS 578T breast, 22.9 µM. Moreover, the TGI in the assay with UACC-257 melanoma was 47.6 µM; in the assay with EKVX NSCLC, 31.6 µM; in the assay on NCI-H460 lung, above 50 µM; in the assay on SNB-19 CNS, 49.1 µM; in the assay with SNB-75 CNS, 11.7 µM; with KM12 colon it was above 50 µM. Moreover, the TGI was above 50 µM with MOLT-4 leukemia, 23.2 µM in the assay with SN12C renal and above 50 µM with HS 578T breast.

Regarding `C/C=C(\C)c1cc(=O)c2c(C)cc3c(c2o1)C(=O)c1c(O)c(C2CC(C)(N(C)C)C(O)C(C)O2)cc(C2CC(N(C)C)C(O)C(C)O2)c1C3=O` (stereo unspecified), the GI50 in the assay with UACC-257 melanoma was 0.505 µM and 2.59 µM; with SNB-19 CNS it was 0.404 µM and 2.6 µM; in the assay on MOLT-4 leukemia, 0.687 µM. Further, the TGI was 1.9 µM and 8.55 µM with UACC-257 melanoma; 1.59 µM in the assay with EKVX NSCLC; 7.54 µM and 28.8 µM in the assay on SNB-19 CNS; 2.42 µM and > 23 µM in the assay with KM12 colon; 15.6 µM in the assay on MOLT-4 leukemia; 0.517 µM in the assay with HS 578T breast.

Regarding `[N-]=[N+]=Nc1ccc(CCN2CCN(c3cccc(C(F)(F)F)c3)CC2)cc1I`, the TGI in the assay on UACC-257 melanoma, in the assay with EKVX NSCLC, in the assay on NCI-H460 lung, in the assay on SNB-19 CNS, with SNB-75 CNS and in the assay on NCI-H226 lung was above 100 µM each time. For the same molecule, the TGI with KM12 colon, with MOLT-4 leukemia and with SN12C renal was above 100 µM each time.

Take `O=C(Cc1nc2ccccc2c(=O)n1-c1c(Cl)cccc1Cl)c1ccncc1`: the TGI with UACC-257 melanoma was 54.3 µM; in the assay on EKVX NSCLC, above 100 µM; in the assay on NCI-H460 lung, 52.2 µM; in the assay with SNB-19 CNS, above 100 µM; with SNB-75 CNS, 68.2 µM; in the assay on NCI-H226 lung, above 10 µM. Moreover, the results for the TGI with KM12 colon, in the assay on MOLT-4 leukemia and with SN12C renal were 32.3 µM, 42.2 µM and above 100 µM, respectively.

As to `COc1cc(NS(C)(=O)=O)ccc1Nc1c2ccccc2nc2c(C)cccc12`, the GI50 with UACC-257 melanoma was 0.792 µM and 0.639 µM; in the assay with NCI-H460 lung, 0.0175 µM and 0.022 µM; in the assay with SNB-19 CNS, 0.196 µM and 0.23 µM; with SNB-75 CNS, 0.143 µM and 0.316 µM; in the assay on KM12 colon it was 0.416 µM and 0.558 µM; in the assay with MOLT-4 leukemia, 0.0245 µM and 0.0304 µM. For the same molecule, the GI50 with SN12C renal is 0.0961 µM and 0.087 µM; in the assay with HS 578T breast, 0.652 µM and 0.406 µM. In addition, the TGI is 12.1 µM and 13.5 µM in the assay with UACC-257 melanoma; 1.1 µM and 1.08 µM in the assay on NCI-H460 lung; 15.5 µM and 15.9 µM in the assay on SNB-19 CNS; 4.31 µM and 10.7 µM with SNB-75 CNS; 2.42 µM and 3.74 µM with KM12 colon; 0.229 µM and 0.176 µM with MOLT-4 leukemia. Also, the TGI with SN12C renal is 1.36 µM and 2.08 µM; in the assay on HS 578T breast, 12.8 µM and 6.53 µM.

Turning to `NC(N)=NS(=O)(=O)c1ccc(Nc2c3ccccc3nc3c(C(=O)N4CCN(CCO)CC4)cccc23)cc1`, the TGI in the assay on UACC-257 melanoma, in the assay on EKVX NSCLC, in the assay on NCI-H460 lung, in the assay on SNB-19 CNS, in the assay with SNB-75 CNS and in the assay with NCI-H226 lung was above 100 µM in each case. Besides, the TGI with KM12 colon, with MOLT-4 leukemia and in the assay on SN12C renal was above 100 µM in each case.

Consider `O=C(CCN1CCOCC1)Nc1ccc(F)cc1F`, for which the TGI in the assay with UACC-257 melanoma, in the assay with EKVX NSCLC, in the assay with NCI-H460 lung, with SNB-19 CNS, in the assay on NCI-H226 lung and in the assay with KM12 colon was above 100 µM in each case. Moreover, the TGI in the assay with MOLT-4 leukemia, in the assay on SN12C renal and in the assay on HS 578T breast was above 100 µM throughout.

As to `CC1=CC[C@@H]2C(C)(C)C(=O)CC[C@@]2(C)[C@@H]1COc1ccc2ccc(=O)oc2c1`, the GI50 is 12.3 µM in the assay on UACC-257 melanoma; 13.6 µM with EKVX NSCLC; 21.8 µM in the assay with NCI-H460 lung; 32.9 µM in the assay on SNB-19 CNS; 8.7 µM in the assay with NCI-H226 lung; 9.15 µM with KM12 colon. Also, the GI50 in the assay on MOLT-4 leukemia was 3.79 µM; in the assay with SN12C renal it was 27.3 µM; in the assay with HS 578T breast, 40.5 µM. Moreover, the TGI with UACC-257 melanoma was 31 µM; in the assay on EKVX NSCLC it was above 100 µM; in the assay with NCI-H460 lung, 79.7 µM; in the assay on SNB-19 CNS, above 100 µM; with NCI-H226 lung, 33.7 µM; in the assay with KM12 colon, 23.7 µM. In addition, the TGI in the assay with MOLT-4 leukemia was 17.9 µM; in the assay with SN12C renal it was above 100 µM; in the assay on HS 578T breast, above 100 µM.

As for `COc1cc2c(c(OC)c1OC)C(=O)CC(c1cccc(NC(=O)c3ccc(Br)cc3)c1)O2` (stereo unspecified), the GI50 was 2.96 µM with UACC-257 melanoma; 2.5 µM in the assay with EKVX NSCLC; 3.27 µM in the assay on NCI-H460 lung; 4.25 µM in the assay with SNB-19 CNS; 3 µM in the assay with NCI-H226 lung; 1.54 µM in the assay on MOLT-4 leukemia. Further, the GI50 in the assay with SN12C renal is 3.06 µM; in the assay with HS 578T breast, 4.1 µM. Moreover, the TGI with UACC-257 melanoma was 9.04 µM; in the assay on EKVX NSCLC, above 100 µM; in the assay on NCI-H460 lung it was above 100 µM; in the assay on SNB-19 CNS, above 100 µM; in the assay on NCI-H226 lung, above 100 µM; in the assay with MOLT-4 leukemia it was 4.19 µM. The TGI with SN12C renal and in the assay on HS 578T breast was above 100 µM in each case.

On to `CCCN(CCCN)/[N+]([O-])=N\O`, for which the TGI in the assay on UACC-257 melanoma was above 100 µM; in the assay with EKVX NSCLC it was 0.921 µM; in the assay with NCI-H460 lung it was above 100 µM; in the assay on SNB-19 CNS, above 100 µM; in the assay with SNB-75 CNS, above 100 µM; in the assay with NCI-H226 lung it was above 100 µM. The TGI in the assay on KM12 colon, with MOLT-4 leukemia and with SN12C renal was above 100 µM each time.

Consider `CC1(C)OC(=O)[C@@](C)([C@H](O)c2ccccc2)O1`, for which the TGI in the assay with UACC-257 melanoma, in the assay with EKVX NSCLC, in the assay with NCI-H460 lung, with SNB-19 CNS, with SNB-75 CNS and in the assay on NCI-H226 lung was above 100 µM throughout. In addition, the TGI in the assay on KM12 colon, with MOLT-4 leukemia and with SN12C renal was above 100 µM throughout.

Take `CN1C(OCc2ccccc2)c2c(ccc3c2OCO3)C2C=Cc3cc4c(cc3C21)OCO4` (stereo unspecified): the TGI in the assay with UACC-257 melanoma worked out at 2.68 µM; in the assay with EKVX NSCLC, 2.98 µM; with NCI-H460 lung, 3.09 µM; in the assay on SNB-19 CNS, 3.06 µM; in the assay on SNB-75 CNS, 2.71 µM; in the assay with NCI-H226 lung it was 2.8 µM. In addition, the TGI with KM12 colon came to 2.22 µM; in the assay on MOLT-4 leukemia, 0.678 µM; in the assay with SN12C renal, 2.61 µM.

For the molecule `O=[N+]([O-])c1cc([N+](=O)[O-])c(Cl)c(Cl)c1Cl`, the GI50 in the assay on UACC-257 melanoma is 1.43 µM; in the assay with EKVX NSCLC, 2.74 µM; with NCI-H460 lung, 2.16 µM; with SNB-19 CNS, 3.36 µM; in the assay on SNB-75 CNS it was 1.54 µM; in the assay with KM12 colon, 1.85 µM. Also, the values for the GI50 with MOLT-4 leukemia and in the assay on HS 578T breast were 0.831 µM and 2.26 µM, respectively. Moreover, the TGI with UACC-257 melanoma turned out to be 2.83 µM; in the assay with EKVX NSCLC it was 10.5 µM; in the assay with NCI-H460 lung, 4.99 µM; in the assay on SNB-19 CNS it was 12 µM; in the assay with SNB-75 CNS, 2.95 µM; in the assay with KM12 colon it was 3.76 µM. Moreover, the TGI is 5.82 µM in the assay with MOLT-4 leukemia and 5.31 µM in the assay with HS 578T breast.

Turning to `Cc1ccc(NC(=O)CC/C(CC(=O)C(C)(C)C)=N/NC(=O)C(N)=O)cc1C`, the TGI in the assay with UACC-257 melanoma, with EKVX NSCLC, in the assay with NCI-H460 lung, in the assay with SNB-19 CNS, with SNB-75 CNS and with NCI-H226 lung was above 100 µM in each case. Further, the TGI in the assay on KM12 colon, in the assay with MOLT-4 leukemia and with SN12C renal was above 100 µM each time.

As for `N=CCCN(CCC=N)c1ccc(/C=C2\CN(NC(=O)c3ccc(Cl)cc3)C(c3ccccc3)=N2)cc1`, the TGI in the assay on UACC-257 melanoma, in the assay with EKVX NSCLC, in the assay on NCI-H460 lung, in the assay on SNB-19 CNS, in the assay on SNB-75 CNS and in the assay on NCI-H226 lung was above 100 µM each time. Besides, the TGI in the assay on KM12 colon, in the assay with MOLT-4 leukemia and in the assay on SN12C renal was above 100 µM throughout.

With `O=C1c2cccc3cc([N+](=O)[O-])cc(c23)C(=O)N1NC1=NCCN1`, the TGI in the assay on UACC-257 melanoma, in the assay on EKVX NSCLC, in the assay with NCI-H460 lung, with SNB-19 CNS, in the assay with SNB-75 CNS and in the assay with NCI-H226 lung was above 100 µM in each case. The TGI in the assay with KM12 colon, with MOLT-4 leukemia and in the assay with SN12C renal was above 100 µM each time.
